In patent EP3643303A1, “COMPOUNDS FOR USE IN THE TREATMENT OR PREVENTION OF FIBROTIC DISEASES; PHARMACEUTICAL, COSMETIC COMPOSITIONS AND USES THEREOF” (InnovativeHealth Group SL, priority 2018, dated 2020):

How the values were obtained:
NHDFs = experiment: Fibroblast migration scratch (wound healing) assay in NHDFs; format: cell-based, human; details: Figure 6
Procedure: Migration of skin fibroblast plays a crucial role not only in normal wound healing but also in fibrotic diseases. To further analyze this point, it was tested if the anti-fibrotic effect of (-)CBD could be associated with reduced fibroblast migration. To investigate this possibility, the effect of (-)CBD on TGFβ-induced wound healing was investigated. NHDFs (2x10^3 cells) were seeded in complete DMEM in a 96-well Essen ImageLock plates (Essen BioScience). When cells reached confluence, wound scratches were made using the 96-pin WoundMaker (Essen BioScience). Then, culture medium was replaced by DMEM supplemented with 1% antibiotics and with mitomycin C (10 ng/ml) to block cell proliferation. (-)CBD and TGFβ1 10 ng/ml were added in parallel. Wound healing activity was analyzed using IncuCyte HD system by taking images every 3 h for 48 h and the percentage of wound confluence calculated with the IncuCyte software.

[1] = system: Il13, IL1β, IL6, CCL2, TGFβ and IL4; experiment: Real-time quantitative PCR of inflammatory and fibrotic cytokines in skin of BLM mice; format: in vivo; details: mRNA, 2^-ΔΔCt, Figure 11
Procedure: Total RNA was isolated from mice frozen skin tissue using QIAzol lysis reagent (Qiagen, Hilden, Germany) and purified with RNeasy mini kit (Qiagen). Total RNA (1 µg) was retrotranscribed using the iScript™ cDNA Synthesis Kit (Bio-Rad), and the cDNA generated was analysed by real-time PCR using the iQTM SYBR Green Supermix (Bio-Rad) using a CFX96 Real-Time PCR Detection System (Bio-Rad). […] The GAPDH housekeeping gene was used to standardize the mRNA expression levels in every sample. Expression levels were calculated using the 2^-ΔΔCt method. Gene expression were normalized to GADPH mRNA levels in each sample and expressed using the 2^-ΔΔCt method. Table 1. List of mouse primer sequences used in quantitative Polymerase Chain Reaction

[2] = system: activated hepatic stellate cells; details: Lim et al. 2011; cited from earlier work
[3] = system: diabetes-associated myocardial fibrosis; details: Rajesh et al. 2010; cited from earlier work
CB1 = details: Bisogno et al. 2001; cited from earlier work
CB2 = CB2 (Homo sapiens, UniProt P34972); details: Bisogno et al. 2001; cited from earlier work
mouse seizure model = details: Leite et al. 1982; cited from earlier work

Sequence of CB2 (P34972 whole entry, species assumed): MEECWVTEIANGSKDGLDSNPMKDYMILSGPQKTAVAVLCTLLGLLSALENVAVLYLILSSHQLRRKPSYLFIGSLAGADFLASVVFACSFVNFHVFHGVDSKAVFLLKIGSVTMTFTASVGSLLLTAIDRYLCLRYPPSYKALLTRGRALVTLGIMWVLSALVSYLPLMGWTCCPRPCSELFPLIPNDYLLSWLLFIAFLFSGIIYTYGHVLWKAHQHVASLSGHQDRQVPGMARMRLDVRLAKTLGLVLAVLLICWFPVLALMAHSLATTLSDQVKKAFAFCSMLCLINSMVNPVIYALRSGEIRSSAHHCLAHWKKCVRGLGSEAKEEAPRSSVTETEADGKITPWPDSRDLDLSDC

Row | Compound | wound closure induced by TGFβ1 (NHDFs; TGFβ1 10 ng/ml, 48 h, concentration-dependent) | wound closure induced by rhIL-4 (NHDFs; rhIL-4, concentration-dependent) | expression levels of CCL2 in the skin [1] | expression levels of IL1β in the skin [1] | expression levels of IL4 in the skin [1] | expression levels of IL6 in the skin [1] | expression levels of Il13 in the skin [1] | expression levels of TGFβ in the skin [1] | cell death of activated hepatic stellate cells [2] | diabetes-associated myocardial fibrosis [3] | affinity at CB1 receptors (CB1) | affinity at CB2 receptors (CB2) | anticonvulsant activity (mouse seizure model)
1 | C=C(C)[C@@H]1CCC(C)=C[C@H]1c1c(O)cc(CCCCC)cc1O [(-)CBD, 2-[(1R,6R)-3-methyl-6-prop-1-en-2-ylcyclohex-2-en-1-yl]-5-pentylbenzene-1,3-diol] | significantly attenuated | significantly attenuated | significantly reduced | significantly reduced | significantly reduced | significantly reduced | significantly reduced | significantly reduced | induces cell death | attenuates |  |  | 
2 | C=C(C)[C@H]1CCC(C)=C[C@@H]1c1c(O)cc(CCCCC)cc1O [(+)CBD, (+)Cannabidiol] |  |  |  |  |  |  |  |  |  |  | has been shown to have affinity | has been shown to have affinity | more active than the (-)CBD isomer
